The values that follow come from patent US20210284668A1, “GOLD (I)-PHOSPHINE 1,2,3-TRIAZOLE DERIVATIVES WITH ANTIBIOTIC PROPERTIES” (Centre National de la Recherche Scientifique, priority 2018, published 2021).

Each structure is given as a SMILES string. Values joined by “and” are separate entries in the source; they are usually repeats but may differ in a detail not shown here. Identical values can stand only once. Where only a bound is given, the exact number is not on record here.

One assay deals with S. aureus ATCC25923. In words: MIC by microdilution, S. aureus ATCC25923. Type of assay: cell-based, Staphylococcus aureus. The note with it: S. aureus ATCC25923 (MecA negative, wild-type), Mueller-Hinton broth, in duplicate. Put shortly:
(§1)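 Broth microdilution per CLSI document M07-A10, Mueller-Hinton medium, each MIC run in duplicate. Strains include E. coli ATCC25922 (wild-type), S. epidermidis ATCC35984 (MecA positive) and S. aureus ATCC700699 (MecA positive, glycopeptide resistant), within a mixed panel of susceptible and resistant Gram-positive/Gram-negative bacteria.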

The next assay relates to S. aureus ATCC29213. In words: MIC by microdilution, S. aureus ATCC29213. It is filed as cell-based, Staphylococcus aureus. The note with it: S. aureus ATCC29213 (MecA negative, wild-type), Mueller-Hinton broth, in duplicate. Put shortly:
as §1

The test system of a further assay is S. aureus ATCC700699. In words: MIC by microdilution, S. aureus ATCC700699. The note with it: S. aureus ATCC700699 (MecA positive, glycopeptide resistant), in duplicate. It is filed as cell-based, Staphylococcus aureus. Set-up: unit not given here. In outline:
as §1

The test system of the next assay is S. aureus ST20131365. The experiment in a line: MIC by microdilution, S. aureus ST20131365. Type of assay: cell-based, Staphylococcus aureus. The conditions noted are these: S. aureus ST20131365 (MecA positive, glycopeptide resistant), in duplicate. Put shortly:
as §1

A further assay concerns S. epidermidis ATCC14990. The experiment in a line: MIC by microdilution, S. epidermidis ATCC14990. Type of assay: cell-based, Staphylococcus epidermidis. The conditions noted are these: S. epidermidis ATCC14990 (MecA negative, wild-type), in duplicate. In outline:
as §1

A further assay has as its system S. epidermidis ATCC35984. In words: MIC by microdilution, S. epidermidis ATCC35984. Type of assay: cell-based, Staphylococcus epidermidis. The conditions noted are these: S. epidermidis ATCC35984 (MecA positive), in duplicate. In outline:
as §1

Assay [1] deals with S. epidermidis ST20140436. The experiment in a line: MIC by microdilution, S. epidermidis ST20140436. Type of assay: cell-based, Staphylococcus epidermidis. The note with it: S. epidermidis ST20140436 (MecA positive, glycopeptide resistant), in duplicate. Put shortly:
as §1

The test system of assay [2] is S. epidermidis ST20150446. The experiment in a line: MIC by microdilution, S. epidermidis ST20150446. It is filed as cell-based, Staphylococcus epidermidis. The conditions noted are these: S. epidermidis ST20150446 (MecA positive, glycopeptide resistant), in duplicate. Put shortly:
as §1

A further assay has as its system E. faecalis JH2-2. In words: MIC by microdilution, E. faecalis JH2-2. Type of assay: cell-based, Enterococcus faecalis. Set-up: unit not given here. The note with it: E. faecalis JH2-2 (wild-type), in duplicate. Put shortly: as §1
A further assay concerns E. faecalis UCN41. The experiment in a line: MIC by microdilution, E. faecalis UCN41. Type of assay: cell-based, Enterococcus faecalis. The conditions noted are these: E. faecalis UCN41 (VanA positive, glycopeptide resistant), in duplicate. More on the design: unit not given here. In outline: as §1
The test system of the next assay is E. faecalis V583. The experiment in a line: MIC by microdilution, E. faecalis V583. It is filed as cell-based, Enterococcus faecalis. The conditions noted are these: E. faecalis V583 (VanB positive, glycopeptide resistant), in duplicate. Put shortly:
as §1

The test system of another assay is E. faecium ATCC19434T. The experiment in a line: MIC by microdilution, E. faecium ATCC19434T. The note with it: E. faecium ATCC19434T (wild-type), in duplicate. Type of assay: cell-based, Enterococcus faecium. Set-up: unit not given here. In outline:
as §1

A further assay has as its system E. faecium BM4147. The experiment in a line: MIC by microdilution, E. faecium BM4147. The note with it: E. faecium BM4147 (VanA positive, glycopeptide resistant), in duplicate. More on the design: unit not given here. Type of assay: cell-based, Enterococcus faecium. In outline: as §1
In another assay the test system is E. faecium AUS0004. In words: MIC by microdilution, E. faecium AUS0004. It is filed as cell-based, Enterococcus faecium. The conditions noted are these: E. faecium AUS0004 (VanB positive, glycopeptide resistant), in duplicate. In outline:
as §1

The next assay has as its system E. coli ATCC25922. In words: MIC by microdilution, E. coli ATCC25922. It is filed as cell-based, Escherichia coli. The note with it: E. coli ATCC25922 (wild-type), in duplicate. In outline: as §1
The subject of assay [3] is Clostridium difficile ATCC700057. The experiment in a line: MIC by microdilution, Clostridium difficile. Type of assay: cell-based. The note with it: strain ATCC70057 [sic] (Tables 1-2) / ATCC700057 (Tables 3-10), in duplicate.
The subject of assay [4] is panel of Gram-positive and Gram-negative strains. The experiment in a line: Antibacterial profile on the selected panel of strains. It is filed as cell-based. The note with it: summary of Tables 1-12. Put shortly:
as §1

In the case of `CC[P+](CC)(CC)[Au-][c]1nn[nH]c1COC(=O)N1CCC[C@@H]1C(=O)O` [TMB28], the “Minimal Inhibitory Concentration (MIC)” value with S. aureus ATCC25923 was 0.125; in the assay on S. aureus ATCC29213, 0.25; with S. aureus ATCC700699 it was 0.125; with S. aureus ST20131365 it was 0.25 and 0.5; in the assay on S. epidermidis ATCC14990 it was at most 0.06; with S. epidermidis ATCC35984 it was at most 0.06. Moreover, the “Minimal Inhibitory Concentration (MIC)” value was 0.125 in [1]; 0.125 in assay [2]; 0.25 in the assay on E. faecalis JH2-2; 0.25 with E. faecalis UCN41; 0.25 with E. faecalis V583; 0.25 with E. faecium ATCC19434T. Further, the “Minimal Inhibitory Concentration (MIC)” value in the assay on E. faecium BM4147 is 0.5; in the assay on E. faecium AUS0004, 0.5; in the assay on E. coli ATCC25922, above 8; in assay [3], 0.125 and 0.25. Further, in [4], the “antimicrobial / antibacterial activity (in words)” value is listed as “have antimicrobial activity”.
In the case of `CC[P+](CC)(CC)[Au-][c]1nn[nH]c1COC(=O)N[C@H](Cc1c[nH]c2ccccc12)C(=O)O` [TMB30], the “Minimal Inhibitory Concentration (MIC)” value is recorded as 0.25 in the assay with S. aureus ATCC25923; 0.25 in the assay on S. aureus ATCC29213; 0.25 in the assay on S. aureus ATCC700699; 0.25 with S. aureus ST20131365; at most 0.06 in the assay with S. epidermidis ATCC14990; at most 0.06 in the assay with S. epidermidis ATCC35984. For the same compound, the “Minimal Inhibitory Concentration (MIC)” value in assay [1] turned out to be 0.125; in [2], 0.125; in the assay with E. faecalis JH2-2 it was 0.5; in the assay with E. faecalis UCN41, 0.5; in the assay with E. faecalis V583, 0.5; in the assay on E. faecium ATCC19434T it was 0.5. The “Minimal Inhibitory Concentration (MIC)” value is reported as 1 in the assay on E. faecium BM4147, 1 in the assay with E. faecium AUS0004, above 8 in the assay with E. coli ATCC25922 and 0.125 in assay [3]. Also, the “antimicrobial / antibacterial activity (in words)” value in [4] is given as “have antimicrobial activity”.
For the compound `CC[P+](CC)(CC)[Au-][c]1nn[nH]c1COC(=O)NC(C(=O)O)c1ccc(O)cc1` (stereo not drawn) [TMB26], the “Minimal Inhibitory Concentration (MIC)” value with S. aureus ATCC25923 was 0.125; with S. aureus ATCC29213, 0.125; in the assay on S. aureus ATCC700699 it was 0.25; in the assay with S. aureus ST20131365, 0.125; in the assay on S. epidermidis ATCC14990, at most 0.06; in the assay with S. epidermidis ATCC35984, at most 0.06. Moreover, the “Minimal Inhibitory Concentration (MIC)” value in assay [1] is on record as at most 0.06; in assay [2] it was at most 0.06; with E. faecalis JH2-2, 0.25; in the assay with E. faecalis UCN41 it was 0.25; in the assay with E. faecalis V583 it was 0.5; in the assay with E. faecium ATCC19434T, 0.25. Also, the “Minimal Inhibitory Concentration (MIC)” value was 0.5 in the assay with E. faecium BM4147, 0.5 in the assay on E. faecium AUS0004, above 8 with E. coli ATCC25922 and 0.125 in [3]. Further, the “antimicrobial / antibacterial activity (in words)” value in assay [4] is listed as “have antimicrobial activity”.
Turning to `CC[P+](CC)(CC)[Au-][c]1nn[nH]c1CCCO` [TMB34], the “Minimal Inhibitory Concentration (MIC)” value in the assay with S. aureus ATCC25923, in the assay with S. aureus ATCC29213, in the assay with S. aureus ATCC700699, in the assay on S. aureus ST20131365, in the assay on S. epidermidis ATCC14990 and with S. epidermidis ATCC35984 was at most 0.06 each time. For the same compound, the “Minimal Inhibitory Concentration (MIC)” value in assay [1] is reported as at most 0.06; in assay [2], at most 0.06; with E. faecalis JH2-2, 0.125; in the assay on E. faecalis UCN41, 0.125; with E. faecalis V583, 0.125; in the assay with E. faecium ATCC19434T, 0.125. Further, the “Minimal Inhibitory Concentration (MIC)” value with E. faecium BM4147 is listed as 0.125; in the assay with E. faecium AUS0004, 0.125; in the assay with E. coli ATCC25922, above 8; in [3], at most 0.06. For the same compound, in assay [4], the “antimicrobial / antibacterial activity (in words)” value is reported as “have antimicrobial activity”.
As for `CC[P+](CC)(CC)[Au-][c]1nn[nH]c1COC(=O)N[C@H](Cc1ccccc1)C(=O)O` [TMB27], the “Minimal Inhibitory Concentration (MIC)” value in the assay on S. aureus ATCC25923 is 0.25; with S. aureus ATCC29213, 0.25 and 0.5; in the assay with S. aureus ATCC700699, 0.25; in the assay with S. aureus ST20131365, 0.5; in the assay with S. epidermidis ATCC14990, at most 0.06; with S. epidermidis ATCC35984 it was at most 0.06. Further, the “Minimal Inhibitory Concentration (MIC)” value in assay [1] is 0.125; in [2], 0.125; with E. faecalis JH2-2 it was 0.5; with E. faecalis UCN41, 0.5 and 1; in the assay on E. faecalis V583, 1; in the assay on E. faecium ATCC19434T it was 1. The “Minimal Inhibitory Concentration (MIC)” value is 1 in the assay with E. faecium BM4147, 2 in the assay with E. faecium AUS0004, above 8 in the assay with E. coli ATCC25922 and 0.125 in assay [3]. For the same compound, the “antimicrobial / antibacterial activity (in words)” value in [4] is listed as “have antimicrobial activity”.
As to `CC1(C)S[C@@H]2[C@H](NC(=O)[C@H](NC(=O)CCc3cnnn3Cc3ccccc3)c3ccccc3)C(=O)N2[C@H]1C(=O)O` [TMB6], the “Minimal Inhibitory Concentration (MIC)” value with S. aureus ATCC25923 was 0.5; with S. aureus ATCC29213, 0.5 and 1; in the assay with S. aureus ATCC700699, above 8; in the assay with S. aureus ST20131365 it was above 8; with S. epidermidis ATCC14990 it was 0.5; with S. epidermidis ATCC35984 it was above 8. Also, the “Minimal Inhibitory Concentration (MIC)” value in assay [1] was 4; in assay [2], 4 and 8; with E. faecalis JH2-2 it was 2 and 4; in the assay on E. faecalis UCN41, 8; in the assay with E. faecalis V583 it was 4; in the assay on E. faecium ATCC19434T, 8. Besides, the “Minimal Inhibitory Concentration (MIC)” value is given as above 8 in the assay on E. faecium BM4147, above 8 in the assay with E. faecium AUS0004, above 8 in the assay on E. coli ATCC25922 and 2-4 in assay [3]. Further, the “antimicrobial / antibacterial activity (in words)” value in assay [4] is “do not show an antibacterial activity”.
